Results from US20140235643A1, “NOVEL QUINOXALINE INHIBITORS OF PI3K” (GILEAD CALISTOGA LLC, priority 2011, published 2014).

Assays:
PI3Kγ (p110 gamma) = biological target: T1, PI3Kγ (p110 gamma) (Homo sapiens, UniProt P48736); test: PI3K biochemical enzyme assay (Adapta universal kinase assay), p110 gamma; conditions: for IC50: Table 2, PI3k biochemical assays, read-out: p120γ IC50
T1 construct: purchased Invitrogen
Protocol: This example describes a method of obtaining in vitro activity data concerning the effect of compounds of on various PI3K isoforms. The effect of compounds on the kinase activity of Class I PI3Ks was measured at Invitrogen by using the Adapta® universal kinase assay. It was a homogenous, fluorescent based immunoassay for the detection of ADP produced by the kinase reaction. This assay can be divided into two phases: a kinase reaction phase, and an ADP detection phase. In the kinase reaction phase, all components required for the kinase reaction were added to the well, and the reaction was allowed to incubate for 60 minutes. After the reaction, a detection solution consisting of a europium labeled anti-ADP antibody, an Alexa Fluor® 647 labeled ADP tracer, and EDTA (to stop the kinase reaction) was added to the assay well. ADP formed by the kinase reaction (in the absence of an inhibitor) displaced the Alexa Fluor® 647 labeled ADP tracer from the antibody, resulting in a decrease in the TR-FRET signal.
ADP formation was determined by calculating the emission ratio from the assay well. The emission ratio was calculated by dividing the intensity of the tracer (acceptor) emission by the intensity of the Eu (donor) emission at 615 nm as shown in the equation below.
The Test Compounds were screened in 1% DMSO (final) in the well. All Substrate/Kinase Mixtures were diluted to a 2× working concentration in the appropriate Kinase Buffer as described below for the individual kinase:
The 2× p110 gamma/PIP2:PS mixture was prepared in 50 mM HEPES pH 7.5, 1 mM EGTA, 3 mM mgCl2. The final […] Kinase Reaction consisted of 3.5-26 ng p110 gamma and 50 μM PIP2:PS in 32.5 mM HEPES pH 7.5, 0.5 mM EGTA, 1.5 mM mgCl2. After the 1 hour Kinase Reaction incubation, 5 μL of Detection Mix was added.
The Detection mix consisted of EDTA (30 mM), Eu-anti-ADP antibody (30 nM) and ADP tracer. All ATP Solutions were diluted to a 4× working concentration in water and used at the Km apparent concentrations for each individual kinase.

PI3Kα = biological target: T2, PI3Kα (Mus musculus, UniProt P42337); test: PI3Kα-dependent cell-based assay: PDGF-BB mediated AKT phosphorylation in Swiss-3T3 cells; conditions: PDGF-BB-induced AKT phosphorylation, Swiss-3T3 fibroblasts
T2 construct: endogenous in cells; host or cells: Swiss-3T3 fibroblasts (ATCC)
Protocol: PDGF-BB-induced AKT phosphorylation in Swiss-3T3 fibroblasts is mediated by p110α. C5a-induced AKT phosphorylation in RAW-264 murine macrophages is mediated exclusively by p110γ.
PI3Kα-Dependent Cell-Based Assay: PDGF-BB Mediated AKT Phosphorylation in Swiss-3T3 Cells
Swiss-3T3 fibroblasts (American Type Culture Collection) were cultured with DMEM containing 10% fetal bovine serum and the antibiotics penicillin and streptomycin. Cells were seeded on a 96-well Tissue Culture Plate at 25,000 cells/well and allowed to reach at least 90% confluency. The cells were starved for 2 to 12 hr in 0.1% FBS containing medium and then were pretreated with inhibitors or DMSO for 2 hr. The cells were stimulated for 15 min with 10 ng/ml PDGF-BB (Cell Signaling Technology) at 37° C. in 5% CO2. The culture medium was removed and cells were fixed for 20 min at room temperature by addition of 100 μl of 4% cell fixing buffer to each well. AKT phosphorylation and total AKT was detected by ELISA.
Detection of Phospho-Ser-473 AKT and Total AKT by ELISA
The fixed cells were washed twice with 150 μl of wash buffer (WB) and quenched by incubating with 100 μl of Quenching Buffer for 20 min at room temperature. Cells were washed once with 150 μl WB and blocked by incubating with 100 μl of Blocking Buffer for 1 hr at room temperature. Cells were incubated with 50 μl of primary antibody diluted in Blocking Buffer, either phospho-Ser-473 AKT specific (1:150 dilution) or total-AKT antibody (1:200 dilution), to each specific well. The negative control wells contained 50 μl of Blocking Buffer. Plates were sealed with plate sealing film and incubated overnight at 4° C. Cells were washed twice with 150 μl WB followed by addition of 50 μl per well of DELFIA secondary antibody (50 ng/well, diluted in DELFIA Assay Buffer). After 2 hr incubation at room temperature, cells were washed 4 times with 150 μl of Europium Wash Solution followed by addition of 100 μl of DELFIA Enhancing Solution to each well. Plates were incubated for 5 min in the dark and fluorescent signal was read using SpectraMax M5™ (Molecular Devices). Total AKT level was determined to verify equal cell number per well. The average background fluorescence values from wells that received vehicle control in the absence of PDGF-BB or C5a were subtracted from all the values of experimental conditions. Fluorescence values corresponding to phosphorylated AKT from wells that received PDGF-BB or C5a were normalized to 100% and compound effect was plotted as % change relative to the vehicle control.

T2 sequence (P42337 whole entry): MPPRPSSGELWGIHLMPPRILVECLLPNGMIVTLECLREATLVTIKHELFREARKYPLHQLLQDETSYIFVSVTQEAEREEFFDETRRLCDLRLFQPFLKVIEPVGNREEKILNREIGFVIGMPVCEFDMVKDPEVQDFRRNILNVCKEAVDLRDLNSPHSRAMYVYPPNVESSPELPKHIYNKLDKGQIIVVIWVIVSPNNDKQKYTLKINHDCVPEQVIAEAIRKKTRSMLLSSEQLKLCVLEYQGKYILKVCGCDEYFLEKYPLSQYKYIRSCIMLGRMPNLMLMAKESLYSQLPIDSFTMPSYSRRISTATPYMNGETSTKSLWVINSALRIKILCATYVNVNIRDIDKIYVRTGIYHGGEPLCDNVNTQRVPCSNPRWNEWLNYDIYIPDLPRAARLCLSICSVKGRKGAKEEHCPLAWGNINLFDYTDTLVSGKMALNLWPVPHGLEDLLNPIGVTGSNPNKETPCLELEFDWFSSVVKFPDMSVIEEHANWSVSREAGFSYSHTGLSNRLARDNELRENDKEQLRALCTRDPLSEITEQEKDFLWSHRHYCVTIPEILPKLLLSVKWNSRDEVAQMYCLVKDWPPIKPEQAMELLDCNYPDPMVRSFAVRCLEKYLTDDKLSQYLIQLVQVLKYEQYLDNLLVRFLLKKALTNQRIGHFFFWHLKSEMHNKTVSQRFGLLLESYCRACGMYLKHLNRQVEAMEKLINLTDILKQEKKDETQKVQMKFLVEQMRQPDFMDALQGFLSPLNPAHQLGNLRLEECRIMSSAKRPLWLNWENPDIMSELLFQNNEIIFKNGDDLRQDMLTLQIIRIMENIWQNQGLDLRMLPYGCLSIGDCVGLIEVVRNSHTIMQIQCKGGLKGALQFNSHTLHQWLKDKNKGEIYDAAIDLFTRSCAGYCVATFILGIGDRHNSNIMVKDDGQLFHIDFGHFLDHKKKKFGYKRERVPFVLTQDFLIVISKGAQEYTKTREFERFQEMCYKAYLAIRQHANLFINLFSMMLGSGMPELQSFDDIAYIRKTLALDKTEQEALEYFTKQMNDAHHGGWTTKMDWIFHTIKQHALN
T2 sequence (P26450 whole entry partner): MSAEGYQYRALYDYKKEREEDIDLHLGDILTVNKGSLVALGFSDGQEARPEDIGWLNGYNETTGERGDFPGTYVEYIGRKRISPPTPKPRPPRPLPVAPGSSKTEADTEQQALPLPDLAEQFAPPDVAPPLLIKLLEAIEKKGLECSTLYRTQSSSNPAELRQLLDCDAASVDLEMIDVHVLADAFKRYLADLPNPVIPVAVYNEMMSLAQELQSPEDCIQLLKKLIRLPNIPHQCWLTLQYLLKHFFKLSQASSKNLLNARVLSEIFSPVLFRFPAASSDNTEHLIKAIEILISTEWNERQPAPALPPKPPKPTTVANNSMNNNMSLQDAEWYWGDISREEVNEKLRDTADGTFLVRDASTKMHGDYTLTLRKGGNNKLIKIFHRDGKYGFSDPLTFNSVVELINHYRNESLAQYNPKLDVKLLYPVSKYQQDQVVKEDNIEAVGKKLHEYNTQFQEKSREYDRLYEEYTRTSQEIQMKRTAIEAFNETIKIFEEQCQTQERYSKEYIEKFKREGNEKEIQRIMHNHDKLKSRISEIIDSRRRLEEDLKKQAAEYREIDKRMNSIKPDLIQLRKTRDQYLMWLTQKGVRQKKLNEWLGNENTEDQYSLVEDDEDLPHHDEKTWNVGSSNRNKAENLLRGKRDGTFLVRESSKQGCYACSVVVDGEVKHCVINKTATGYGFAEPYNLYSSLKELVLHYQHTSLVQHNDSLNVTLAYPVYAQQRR
T1 sequence (P48736 whole entry): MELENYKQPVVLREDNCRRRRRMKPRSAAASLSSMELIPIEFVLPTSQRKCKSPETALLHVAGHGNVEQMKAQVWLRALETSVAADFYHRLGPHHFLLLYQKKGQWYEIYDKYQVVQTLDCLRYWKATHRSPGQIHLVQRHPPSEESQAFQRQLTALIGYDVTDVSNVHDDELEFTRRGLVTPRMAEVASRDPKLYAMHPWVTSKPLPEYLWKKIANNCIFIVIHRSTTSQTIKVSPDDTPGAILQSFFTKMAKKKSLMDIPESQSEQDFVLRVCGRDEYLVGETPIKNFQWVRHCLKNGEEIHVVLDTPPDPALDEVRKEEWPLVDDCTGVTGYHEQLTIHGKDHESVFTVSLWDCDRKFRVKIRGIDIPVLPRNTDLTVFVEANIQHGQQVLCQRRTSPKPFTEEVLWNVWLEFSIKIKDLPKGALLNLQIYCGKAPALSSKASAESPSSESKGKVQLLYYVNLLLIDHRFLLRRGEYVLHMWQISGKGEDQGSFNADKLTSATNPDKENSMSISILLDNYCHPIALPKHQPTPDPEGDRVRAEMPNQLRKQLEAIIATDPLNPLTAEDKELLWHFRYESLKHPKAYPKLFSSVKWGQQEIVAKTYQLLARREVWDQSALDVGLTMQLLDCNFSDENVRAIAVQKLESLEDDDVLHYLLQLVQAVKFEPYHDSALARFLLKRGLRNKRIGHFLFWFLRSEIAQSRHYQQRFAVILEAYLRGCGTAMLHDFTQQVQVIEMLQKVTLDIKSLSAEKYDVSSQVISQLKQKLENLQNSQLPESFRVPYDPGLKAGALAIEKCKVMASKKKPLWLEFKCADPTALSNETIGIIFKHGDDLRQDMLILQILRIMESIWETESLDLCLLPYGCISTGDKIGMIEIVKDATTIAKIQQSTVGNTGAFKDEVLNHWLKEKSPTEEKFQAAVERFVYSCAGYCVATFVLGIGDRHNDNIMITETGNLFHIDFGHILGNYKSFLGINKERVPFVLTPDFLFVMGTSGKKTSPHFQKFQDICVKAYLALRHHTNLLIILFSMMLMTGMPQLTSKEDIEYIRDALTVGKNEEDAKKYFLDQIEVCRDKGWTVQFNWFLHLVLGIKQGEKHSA

Row | SMILES | inhibition at 1 µM (PI3Kγ (p110 gamma); read-out: PI3Kγ % inhib) [%] | inhibition at 10 µM (PI3Kγ (p110 gamma); read-out: PI3Kγ % inhib) [%] | IC50 (PI3Kγ (p110 gamma)) [nM] | EC50 (PI3Kα) [nM] | inhibition at 0.1 µM (PI3Kγ (p110 gamma); 0.1 μM, read-out: PI3Kγ % inhib) [%]
1 | CC(Nc1ncnc2[nH]cnc12)c1nc2ccccc2nc1-c1ccccc1 (centres unmarked) [Compound Q1] | 78 | 99 | 147 | > 20000 | –
2 | CC(Nc1ncnc2[nH]cnc12)c1nc2ccccc2nc1-c1cc(F)cc(F)c1 (centres unmarked) [Compound Q2, N-{1-[3-(3,5-difluorophenyl)quinoxalin-2-yl]ethyl}-9H-purin-6-amine] | 42 | 86 | 5790 | > 20000 | –
3 | Cc1cccc(-c2nc3ccccc3nc2C(C)Nc2ncnc3[nH]cnc23)c1 (centres unmarked) [Compound Q3] | 51 | 94 | 2070 | > 20000 | –
4 | Cc1cccc2nc(C(C)Nc3nc(N)nc4[nH]cnc34)c(-c3ccccc3)nc12 (centres unmarked) [Compound Q4] | 84 | 99 | 8 | 17700 | 36
5 | Cc1cccc2nc(C(C)Nc3nc(N)nc4[nH]cnc34)c(-c3ccc(F)cc3)nc12 (centres unmarked) [Compound Q5] | 79 | 98 | 2 | 14300 | –
6 | CCC(Nc1ncnc2[nH]cnc12)c1nc2cccc(F)c2nc1-c1ccccc1 (centres unmarked) [Compound Q9] | 37 | 95 | 2150 | > 20000 | –
7 | CCC(Nc1ncnc2[nH]cnc12)c1nc2ccccc2nc1-c1ccccc1 (centres unmarked) [Compound Q12] | 44 | 96 | 762 | > 20000 | –
